Measurements reported in patent US6388080B1, “Polymorphic forms of 6-[4-(1-cyclohexyl-1H-tetrazol-5-yl)butoxy]-3,4-dihydro-2(1H)-quinolinone” (priority 2001, dated 2002).

Key:
[1] = aqueous solubility of cilostazol polymorphic forms; type: physicochemical; settings: for solubility relative to Form A: suggested by lower melting point than Form A in DSC thermogram (FIG. 8)
[2] = bioavailability; type: in vivo; settings: Form A as prepared by the procedures of the '479 patent
[3] = stability of the polymorphic form; type: physicochemical
[4] = DSC of disturbed sample: solid state phase transformation to Form A; type: physicochemical; settings: sample disturbed (scratching/stressed), DSC heating from 30° C. to approximately 200° C. at 10° C. per minute; followed by melt of Form A at about 160° C.
From the text: Characterization of Form A of cilostazol, Form B of cilostazol, and Form C of cilostazol was further completed using DSC thermograms, shown in FIGS. 3, 4, and 5, respectively, with DSC thermograms for combinations of Form A and Form B; Form B and Form C; and Forms A, B, and C are shown in FIGS. 6, 7, and 8 respectively. DSC data were generated using a Mettler-Toledo DSC 821^e(Columbus, Ohio) with a Julabo FT900 intercooler chiller (Julabo Company; Allentown, Pa.). In general, samples were analyzed in a vented, sealed aluminum pan. Because the endothermic peak may vary depending upon the rate of heating and the calibration and precision of the instrument, with the amount of peak variation dependent upon the heating rate used, all thermograms included herein were run under the same, consistent conditions: heating at 10° C. per minute under a nitrogen purge at 40 mL/minute. The resultant sample of Example 1A was disturbed with scratching, which caused the cilostazol sample to undergo a solid state phase transformation at approximately 119° C. followed by an endotherm of melt at approximately 160° C. (Form A) during heating by DSC from 30° C. to approximately 200° C. at 10° C. per minute. When the sample is stressed and reheated (as detailed in Example 2A), the sample undergoes a solid state phase transformation at approximately 147° C. followed by an endotherm of melt at about 160° C. […]

| Compound | aqueous solubility ([1]; Form A as prepared by the procedures of the '479 patent) | bioavailability [2] | solubility relative to Form A [1] | stability of the form [3] | solid state phase transformation temperature [4] |
| --- | --- | --- | --- | --- | --- |
| O=C1CCc2cc(OCCCCc3nnnn3C3CCCCC3)ccc2N1 [Form A, 6-[4-(1-cyclohexyl-1H-tetrazol-5-yl)butoxy]-3,4-dihydro-2(1H)-quinolinone] | low | low |  |  |  |
| O=C1CCc2cc(OCCCCc3nnnn3C3CCCCC3)ccc2N1 [Form B, 6-[4-(1-cyclohexyl-1H-tetrazol-5-yl)butoxy]-3,4-dihydro-2(1H)-quinolinone] |  |  | more soluble than Form A | stable | approximately 119 °C |
| O=C1CCc2cc(OCCCCc3nnnn3C3CCCCC3)ccc2N1 [Form C, 6-[4-(1-cyclohexyl-1H-tetrazol-5-yl)butoxy]-3,4-dihydro-2(1H)-quinolinone] |  |  | more soluble than Form A | stable | approximately 147 °C |
